Data taken from PMC12679848, “Sulphonamide derivatives with a triazine core as novel inducers of apoptosis and pyroptosis in glioblastoma multiforme cells” (Journal of Enzyme Inhibition and Medicinal Chemistry, 2025).

What was measured:
caspase 3/7 = assay: Caspase 3/7 activation (FAM FLICA), U-87 MG; type: cell-based, human; conditions: 1.5 μM, 24 h
Procedure: (§1) The activity of caspase 1, caspase 3/7, caspase 8, and caspase 9 was evaluated through the utilisation of FAM FLICA Caspase Assays (ImmunoChemistry Technologies, Bloomington, MN, USA), in accordance with the established protocols. Following treatment with the compounds, the cells were collected at a concentration of 1 × 10^6 cells/mL, washed twice with cold PBS, and resuspended in 290 μL of PBS. The subsequent step involved the addition of 10 μL of 30X FLICA solution, followed by incubation at 37 °C in the absence of light for one hour. Then, 2 ml of Apoptosis Wash Buffer was added, and the samples were washed twice. A 300 μL aliquot of each sample was transferred to a BD FACSCanto II flow cytometer (Becton Dickinson Biosciences, San Jose, CA, USA), where 10,000 events per sample were recorded. The resulting data was then analysed using FACSDiva software, version 6.1.3 (BD Biosciences Systems, San Jose, CA, USA).

caspase 8 = assay: Caspase 8 activation (FAM FLICA), U-87 MG; type: cell-based, human; conditions: 1.5 μM, 24 h
Procedure: as §1

A172 [1] = assay: Mitochondrial membrane potential (JC-1), A172; type: cell-based, human; conditions: A172, 1.5 μM, 24 h
Procedure: (§2) The impact of the novel compounds on mitochondrial membrane potential (ΔΨm) was examined. […] In this study, the fluorochrome JC-1 was employed, which, in cells with normally functioning mitochondria, aggregates and accumulates in the hyperpolarized mitochondrial membrane, emitting a red colour. Conversely, when the membrane is damaged, JC-1 breaks down into monomers, emitting green fluorescence. […] For the U-87 MG cell line, these parameters were equal to 54.88 ± 8.36% and 56.13 ± 13.97% of the cell population.
(§3) JC-1 (1,1′,3,3′-Tetraethyl-5,5′,6,6′-tetrachloroimidacarbocyanine iodide) (BD Biosciences, San Diego, CA, USA), a lipophilic fluorochrome, was used to evaluate changes in mitochondrial membrane potential. After treatment, cancer cells at a concentration of 1 × 10^6 cells/mL were collected and rinsed twice with PBS. Then, 500 μL JC-1 working solution was added to each sample according to the manufacturer’s protocol. The samples were then incubated for 15 min at 37 °C in a CO2 incubator. After incubation, samples were washed twice with an assay buffer, and 500 μL of each sample was transferred to a BD FACSCanto II flow cytometer (Becton Dickinson Biosciences, San Jose, CA, USA) for analysis, with 10,000 events recorded per sample. Data were analysed using FACSDiva software version 6.1.3 (BD Biosciences Systems, San Jose, CA, USA).

NF-κB = assay: NF-kB staining (immunofluorescence, confocal); type: cell-based; conditions: 1.5 μM, 24 h of treatment
Procedure: Location of NF-kB was evaluated by immunofluorescence staining. Cells were cultured on sterile coverslips placed in 6-well plates and treated with compounds MM118, MM119, and TMZ at a concentration of 1.5 μM. After 24 h of treatment, cells were fixed with 4% paraformaldehyde for 15 min at room temperature, then permeabilized with 0.1% Triton X-100 in PBS for 10 min. Following permeabilization, cells were blocked with 2% BSA (bovine serum albumin; Cell Signalling Technology, Danvers, MA, USA) in PBS for 30 min to prevent non-specific binding. Subsequently, cells were incubated overnight at 4 °C with a NF-KB antibody directly conjugated with Alexa Fluor 647 (#D14E12; Cell Signalling Technology, Danvers, MA, USA). The next day, after washing with PBS, nuclei were counterstained with DAPI (4′,6-diamidino-2-phenylindole; Sigma-Aldrich, St. Louis, MO, USA) for 5 min at room temperature. Coverslips were mounted onto glass slides using an antifade mounting medium and imaged using a Stellaris 5 confocal microscope (Leica Microsystems, GmbH, Wetzlar, Germany). Images were analysed using ImageJ software (Bethesda, MD, USA).

A172 [2] = assay: LDH release assay, A172; type: cell-based, human; conditions: A172, 1.5 μM, 24 h
Procedure: Analogous to the procedure described in the previous section, A172 and U-87 MG cells were cultured and plated in 96-well plates. The LDH-Cytotoxicity Assay Kit II (ab65393) (Abcam, Cambridge, UK) was used to assess cytotoxicity according to the manufacturer’s protocol. The test compounds MM118 and MM119 and the reference compound temozolomide (TMZ) were added to the cells at a concentration of 1.5 μM. After 24 h of exposure, the medium was collected, centrifuged and 10 μL of each sample was transferred to a new 96-well plate. In the next step, 100 μL of LDH Reaction Mix was added to each well and incubated for 30 min at room temperature. Absorbance was measured at 450 nm using an Absorbance 96 microplate reader (Byonoy GmbH, Hamburg, Germany). Cytotoxicity was calculated according to the formula provided by the manufacturer: Cytotoxicity (%) = ((Test Sample – Low Control)/(High Control – Low Control)) X 100, where Low Control - control without added compound, High Control with added 10 µL Lysis Buffer II.

caspase 1 [3] = assay: Caspase 1 activation (FAM FLICA), A172; type: cell-based, human; conditions: 24 h
Procedure: (§4) Given the activation of oxidative stress and the occurrence of apoptotic cell death, we decided to verify whether other cell death pathways are triggered. The level of pyroptosis induction of the newly synthesised compounds MM118 and MM119 was determined by assessing the activation of caspase 1. This method facilitates the identification of cells undergoing pyroptosis by detecting the active form of caspase 1, which is a pivotal mediator in the pyroptotic pathway. The tested compounds were analysed on human A172 and U-87 MG glioblastoma multiforme cell lines using concentrations of 1 μM and 1.5 μM for a period of 24 h. […] Conversely, for compound MM119 in line A172, caspase 1 activation was 12.35 ± 2.00% at a concentration of 1 μM and 21.30 ± 1.57% at a concentration of 1.5 μM. For the U-87 MG line, the values were 12.25 ± 2.16% and 24.50 ± 2.11%, respectively.
as §1

U-87 MG = assay: Mitochondrial membrane potential (JC-1), U-87 MG; type: cell-based, human; conditions: 1.5 μM, 24 h
Procedure: as §2, §3

caspase 1 [4] = assay: Caspase 1 activation (FAM FLICA), U-87 MG; type: cell-based, human; conditions: 24 h
Procedure: as §4, §1

| Compound | Active caspase 3/7 (cell population) (caspase 3/7) | Active caspase 8 (cell population) (caspase 8) | Decreased ΔΨm (cell population) (A172 [1]) [%] | NF-κB localisation (NF-κB) | LDH release, cytotoxicity (A172 [2]) [%] | Active caspase 1 (cell population) (caspase 1 [3]; A172, 1.5 μM) | Decreased ΔΨm (cell population) (U-87 MG) [%] | Active caspase 1 (cell population) (caspase 1 [4]; 1.5 μM) | Active caspase 1 (cell population) (caspase 1 [3]; A172, 1.0 μM) [%] | Active caspase 1 (cell population) (caspase 1 [4]; 1.0 μM) [%] |
| --- | --- | --- | --- | --- | --- | --- | --- | --- | --- | --- |
| Cn1nnc2c(C(N)=O)ncn2c1=O [TMZ, temozolomide, reference compound] | no significant differences | No significant statistical differences | 20.25 ± 9.20 | NF-κB translocates to the cell nucleus | −0.61 ± 2.02 | no significant differences | 7.05 ± 2.85 | no significant differences |  |  |
| CCC(CO)NS(=O)(=O)c1ccc(-n2nc(C)c3nc4nnnn4nc32)cc1 (stereo in doubt) [MM118, N-(R)-(1-hydroxy-but-2-yl)-4-[7-methyl-5H-pyrazolo[4,3-e]tetrazolo[1,5-b][1]^,[2]^,[4]triazin-5-yl)]benzenesulfonamide] | 60.08 ± 2.50% | 73.65 ± 3.76% | 70.43 ± 1.44 | NF-κB translocates to the cell nucleus | 16.59 ± 1.71 | 20.38 ± 1.75% | 54.88 ± 8.36 | 26.65 ± 2.28% | 12.10 ± 1.69 | 17.15 ± 1.81 |
| CCC(CO)NS(=O)(=O)c1ccc(-n2nc(C)c3nc4nnnn4nc32)cc1 (stereo in doubt) [MM119, N-(S)-(1-hydroxy-but-2-yl)-4-[7-methyl-5H-pyrazolo[4,3-e]tetrazolo[1,5-b][1]^,[2]^,[4]triazin-5-yl)]benzenesulfonamide] | 57.48 ± 19.68% | 69.15 ± 6.30% | 64.38 ± 1.90 | NF-κB translocates to the cell nucleus | 13.44 ± 2.87 | 21.30 ± 1.57% | 56.13 ± 13.97 | 24.50 ± 2.11% | 12.35 ± 2.00 | 12.25 ± 2.16 |
